Key:
[1] = Comparative test of solubility measurement; conditions: room temperature
Protocol: The solubility was measured for the compounds obtained in the above-mentioned Examples at a room temperature in methyl ethyl ketone (MEK) and toluene.

[2] = maximum absorption wavelength (λmax) in dichloromethane; assay type: physicochemical
From the text: λmax: 1,102 nm (in dichloromethane);

[3] = Stability test of moisture-and-heat resistance of near-IR absorption filter; assay type: physicochemical
Protocol: 1.2 part of each compound obtained in each Example was dissolved in 18.8 part of MEK. 80 part of a resin solution obtained by dissolving 25 part of an acrylic resin (Dianal BR-80, manufactured by Mitsubishi Rayon Co., Ltd.) in 75 part of MEK was mixed with the obtained solution to obtain a solution for coating. The solution was applied to form a film with a thickness of 2 to 4 μm on a polyester film and dried at 80° C. to obtain a near-IR absorption filter of the invention.
The obtained near-IR absorption filter was subjected to a stability test of moisture-and-heat resistance for 14 days in a constant temperature and constant humidity apparatus under 60° C. and 95% RH conditions. The filter was subjected to color measurement by a spectrophotometer before and after the test to calculate L*, a*, and b* values. If the + value of b* value is high, it means that the hue is yellowish and if b* value is close to 0, it means that the yellowish degree is low and filter is desirable and therefore, the hue evaluation and stability evaluation were done based on the b* value and its change.

[4] = Stability test of light fastness of diimmonium compound thin film; assay type: physicochemical
Protocol: 0.1 part of the Compound No. 3 was added to 10 part of tetrafluoropropanol to produce a coating solution. The obtained coating solution was applied to a polycarbonate substrate by spin coating to form a thin film of the diimmonium compound. The […] source output: 0.36 W/m^2; bath temperature: 24° C.; black panel temperature: 40° C.; humidity: 30% RH: by a Weatherometer (Ci4000, manufactured by Atlas Co.). After that, the remaining ratio of the diimmonium compound was measured by a spectrophotometer.
For comparison, a dye film was formed and evaluated in the same manner, except that the compound described in Patent Document No. 3; hexafluoroantimonate of tetrakis[p-di(n-butyl)aminophenyl]phenylenediimmonium (Comparative Example 8: Compound No. 153); was used in place of the Compound No. 3.

[5] = Comparative test of molar absorption coefficient measurement; assay type: physicochemical; conditions: in dichloromethane; in M-1·cm-1
From the text: The compounds obtained in the above-mentioned Examples were subjected to the measurement of molar absorption coefficient (ε) in dichloromethane.

[6] = Stability test of light fastness of cyanine dye film; assay type: physicochemical
Protocol: 0.3 part of the cyanine dye (OM-57) was dissolved in 15 part of tetrafluoropropanol and 0.04 part of the Compound No. 3 was added to the obtained solution to produce a coating solution. The obtained coating solution was applied to a polycarbonate substrate by spin coating to form a dye film. The […] the conditions: light source output: 0.36 W/m^2; bath temperature: 24° C.; black panel temperature: 40° C.; humidity: 30% RH: by a Weatherometer (Ci4000, manufactured by Atlas Co.). After that, the remaining ratio of the cyanine dye was measured by a spectrophotometer.
For comparison, a dye film was formed and evaluated in the same manner, except that the compound described in Patent Document No. 3; hexafluoroantimonate of tetrakis[p-di(n-butyl)aminophenyl]phenylenediimmonium (Comparative Example 7: Compound No. 153); was used in place of the Compound No. 1.

[7] = thermal decomposition point (weight decrease starting point) by TG-DTA; assay type: physicochemical; conditions: measured by TG-DTA
Protocol: the melting point: around 170° C.; and the thermal decomposition point (the weight decrease starting point): around 280° C. (measured by TG-DTA)

[8] = Weatherometer 0.36 W/m^2, 24° C., 30% RH, 100-hour
[9] = Weatherometer 0.36 W/m^2, 24° C., 30% RH, 150-hour

N#CCCCN(CCCC#N)c1ccc([N+](=C2C=CC(=[N+](c3ccc(N(CCCC#N)CCCC#N)cc3)c3ccc(N(CCCC#N)CCCC#N)cc3)C=C2)c2ccc(N(CCCC#N)CCCC#N)cc2)cc1.O=S(=O)([N-]S(=O)(=O)C(F)(F)F)C(F)(F)F.O=S(=O)([N-]S(=O)(=O)C(F)(F)F)C(F)(F)F [Compound No. 3]
solubility in MEK ([1]; methyl ethyl ketone): 2%
solubility in toluene ([1]; toluene): insoluble
λmax [2]: 1,064 nm
b* value, difference ([3]; 14-day after minus initial, 60° C. and 95% RH): 2.5
b* value, 14-day after ([3]; acrylic resin filter, 14 days at 60° C. and 95% RH): 6.1
b* value, initial period ([3]; acrylic resin filter, before test): 3.6
remaining ratio of diimmonium compound (%), 100-hour after [4, 8]: 88%
remaining ratio of diimmonium compound (%), 150-hour after [4, 9]: 86%
remaining ratio of diimmonium compound (%), initial period ([4]; thin film on polycarbonate, before irradiation): 100%
molar absorption coefficient (ε) [5]: 109,000
remaining ratio of cyanine dye (%), initial period ([6]; OM-57 dye film with compound added, before irradiation): 100%
remaining ratio of cyanine dye (%), 100-hour after [6, 8]: 47%
remaining ratio of cyanine dye (%), 150-hour after [6, 9]: 27%
thermal decomposition point (the weight decrease starting point) [7]: around 282 °C
